From ChEMBL document CHEMBL5154649, “Design, synthesis, and characterization of novel aminoalcohol quinolines with strong in vitro antimalarial activity” (Eur J Med Chem, 2022)
The source made the active and inactive calls. No cut-off for these calls is given here.

What was measured:
Plasmodium berghei [1] = test: Antimalarial activity against Plasmodium berghei ANKA infected in BALB/c mouse assessed as increase in animal survival rate at 9 mg/kg, ip administered daily for 5 days and measured for 30 days; type: functional, organism-based; details: time 30.0 day
[2] = target: Voltage-gated inwardly rectifying potassium channel KCNH2 (Homo sapiens, UniProt Q12809); test: Inhibition of hERG channel expressed in CHO cells at holding potential of -80 mV by whole cell patch clamp method; type: toxicity, cell-based
Sequence of Voltage-gated inwardly rectifying potassium channel KCNH2 (Q12809 whole entry): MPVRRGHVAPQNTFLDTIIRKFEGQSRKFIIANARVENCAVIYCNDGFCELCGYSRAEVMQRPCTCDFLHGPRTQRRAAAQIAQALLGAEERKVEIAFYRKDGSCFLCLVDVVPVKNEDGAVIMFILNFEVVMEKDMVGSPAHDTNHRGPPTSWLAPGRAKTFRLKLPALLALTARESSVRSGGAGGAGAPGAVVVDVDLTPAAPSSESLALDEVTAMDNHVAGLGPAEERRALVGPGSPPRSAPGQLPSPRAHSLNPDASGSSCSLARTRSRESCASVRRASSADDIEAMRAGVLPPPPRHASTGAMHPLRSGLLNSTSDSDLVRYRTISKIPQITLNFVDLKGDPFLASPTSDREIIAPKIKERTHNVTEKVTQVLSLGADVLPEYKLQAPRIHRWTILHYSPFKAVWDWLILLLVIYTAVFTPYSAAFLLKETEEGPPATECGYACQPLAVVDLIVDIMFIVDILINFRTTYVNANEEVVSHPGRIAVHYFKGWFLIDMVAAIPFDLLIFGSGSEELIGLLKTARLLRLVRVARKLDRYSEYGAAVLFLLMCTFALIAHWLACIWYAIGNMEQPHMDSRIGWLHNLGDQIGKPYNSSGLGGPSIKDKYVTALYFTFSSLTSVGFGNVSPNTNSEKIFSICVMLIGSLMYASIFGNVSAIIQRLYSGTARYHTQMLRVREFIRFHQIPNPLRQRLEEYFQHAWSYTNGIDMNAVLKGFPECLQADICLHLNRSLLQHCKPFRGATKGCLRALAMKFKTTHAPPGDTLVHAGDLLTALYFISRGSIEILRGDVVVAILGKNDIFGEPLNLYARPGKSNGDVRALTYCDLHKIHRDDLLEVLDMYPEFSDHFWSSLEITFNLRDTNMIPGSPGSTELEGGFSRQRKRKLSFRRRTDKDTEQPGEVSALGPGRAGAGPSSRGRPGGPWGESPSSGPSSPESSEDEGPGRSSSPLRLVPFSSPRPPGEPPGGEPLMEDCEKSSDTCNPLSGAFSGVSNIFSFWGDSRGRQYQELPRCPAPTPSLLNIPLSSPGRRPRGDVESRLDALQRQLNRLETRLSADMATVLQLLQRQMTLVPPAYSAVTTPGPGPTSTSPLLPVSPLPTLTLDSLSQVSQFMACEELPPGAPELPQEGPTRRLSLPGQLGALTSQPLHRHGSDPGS

[3] = Apparent permeability across apical to basolateral side in human Caco-2/TC7 cells assessed as drug recovery at 20 uM incubated for 2 hrs by LC-MS/MS analysis; type: ADME, cell-based, Caco2/TC7; details: read-out: Drug recovery
[4] = Apparent permeability across apical to basolateral side in human Caco-2/TC7 cells at 20 uM incubated for 2 hrs by LC-MS/MS analysis; type: ADME, cell-based, Caco2/TC7
[5] = Genotoxicity in CHO-K1 cells at 0.001 to 1 mM incubated for 24 hrs without metabolic activation by in vitro micronucleus test; type: toxicity, cell-based, Cricetulus griseus; details: chinese hamster, cho-k1, 24 h, 1000 µM, dose 0.001-1 mM
[6] = Selectivity index, ratio of IC50 for cytotoxicity against chinese hamster CHO cells to IC50 for antiplasmodial activity against Plasmodium falciparum 3D7 infected in human erythrocytes by HRP2-ELISA; type: toxicity, cell-based; details: read-out: Ratio IC50
Plasmodium falciparum [7] = test: Antiplasmodial activity against CQ-resistant Plasmodium falciparum W2 assessed as inhibition of parasite growth measured after 48 hrs by SYBR Green 1 dye based fluorescence assay; type: functional, organism-based; details: W2, 48 h
Plasmodium falciparum [8] = test: Antiplasmodial activity CQ-resistant Plasmodium falciparum W2 infected in human erythrocytes assessed as inhibition of parasite growth measured after 72 hrs by HRP2-ELISA; type: functional, organism-based; details: W2, Erythrocyte
Cytochrome P450 3A4 [9] = target: T1, Cytochrome P450 3A4 (Homo sapiens, UniProt P08684); test: Inhibition of CYP3A4 in human liver microsomes assessed as reduction in 1'-hydroxy midazolam formation using midazolam as substrate preincubated for 20 mins in absence of NADPH followed by incubation with substrate for 10 mins by LC-MS/MS analysis; type: ADME, Microsome
T1 sequence (P08684 whole entry): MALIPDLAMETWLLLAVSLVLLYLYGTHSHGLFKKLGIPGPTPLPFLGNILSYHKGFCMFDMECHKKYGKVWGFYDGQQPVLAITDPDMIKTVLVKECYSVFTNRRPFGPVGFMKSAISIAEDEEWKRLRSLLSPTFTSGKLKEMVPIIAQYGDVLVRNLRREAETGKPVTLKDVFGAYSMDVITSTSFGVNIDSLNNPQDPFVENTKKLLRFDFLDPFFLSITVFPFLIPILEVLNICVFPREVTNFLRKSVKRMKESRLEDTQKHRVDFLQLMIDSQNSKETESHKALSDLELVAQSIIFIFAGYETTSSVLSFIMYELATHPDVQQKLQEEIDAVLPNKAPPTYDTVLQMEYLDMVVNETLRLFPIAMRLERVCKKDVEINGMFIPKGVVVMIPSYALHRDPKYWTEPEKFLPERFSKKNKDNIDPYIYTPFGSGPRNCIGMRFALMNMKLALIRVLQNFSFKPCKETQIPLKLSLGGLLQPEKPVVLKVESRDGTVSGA

Plasmodium falciparum [10] = test: Antiplasmodial activity against CQ-susceptible Plasmodium falciparum 3D7 assessed as inhibition of parasite growth measured after 48 hrs by SYBR Green 1 dye based fluorescence assay; type: functional, organism-based; details: 3D7, 48 h
[11] = Drug metabolism in human liver microsomes assessed as oxidative metabolite formation measured after 5 mins by LC-MS analysis; type: ADME, Microsome
[12] = Selectivity index, ratio of IC50 for human HFF cells to IC50 for antiplasmodial activity against Plasmodium falciparum 3D7 infected in human erythrocytes by HRP2-ELISA; type: toxicity, cell-based; details: read-out: Ratio IC50
Cytochrome P450 3A4 [13] = target: T1, Cytochrome P450 3A4; test: Inhibition of CYP3A4 in human liver microsomes assessed as reduction in 1'-hydroxy midazolam formation using midazolam as substrate preincubated for 20 mins in presence of NADPH followed by incubation with substrate for 10 mins by LC-MS/MS analysis; type: ADME, Microsome
[14] = Genotoxicity in CHO-K1 cells at 0.001 to 1 mM incubated for 3 hrs in presence of S9 mix by in vitro micronucleus test; type: toxicity, cell-based, Cricetulus griseus; details: chinese hamster, cho-k1, 3 h, 1000 µM, dose 0.001-1 mM
[15] = Drug metabolism in mouse liver microsomes assessed as (S)-2-(((S)-2-(2,8-Bis(trifluoromethyl)quinolin-4-yl)-2-hydroxyethyl)amino)-3-phenylpropan-1-ol metabolite formation measured after 5 mins by LC-MS analysis; type: ADME, Microsome
[16] = Metabolic stability in human liver microsomes assessed as intrinsic clearance at 0.5 uM incubated for 30 mins by LC-MS/MS analysis; type: ADME, Microsome; details: read-out: CLH
[17] = Selectivity index, ratio of IC50 for cytotoxicity against human THP-1 cells to IC50 for antiplasmodial activity against Plasmodium falciparum 3D7 infected in human erythrocytes by HRP2-ELISA; type: toxicity, cell-based; details: read-out: Ratio IC50
[18] = Cytotoxicity against Chinese hamster CHO cells assessed as reduction in cell viability incubated for 24 hrs by MTT assay; type: toxicity, cell-based, Cricetulus griseus
[19] = Cytotoxicity against human HepG2 cells assessed as reduction in cell viability incubated for 72 hrs by MTT assay; type: toxicity, cell-based
[20] = Drug metabolism in mouse liver microsomes assessed as (1S)-2-amino-1-[2,8-bis(trifluoromethyl)quinolin-4-yl]ethan-1-ol metabolite formation measured after 5 mins by LC-MS analysis; type: ADME, Microsome
Plasmodium falciparum [21] = test: Antiplasmodial activity against CQ-susceptible Plasmodium falciparum 3D7 infected in human erythrocytes assessed as inhibition of parasite growth measured after 72 hrs by HRP2-ELISA; type: functional, organism-based; details: 3D7, Erythrocyte
[22] = Cytotoxicity against human HFF cells assessed as reduction in cell viability incubated for 72 hrs by MTT assay; type: toxicity, cell-based
Cytochrome P450 3A4 [23] = target: T1, Cytochrome P450 3A4; test: Inhibition of CYP3A4 in human liver microsomes assessed as reduction in 6-beta-hydroxy-testosterone formation using testosterone as substrate preincubated for 20 mins in presence of NADPH followed by incubation with substrate for 10 mins by LC-MS/MS analysis; type: ADME, Microsome
[24] = Drug metabolism in rat liver microsomes assessed as oxidative metabolite formation measured after 5 mins by LC-MS analysis; type: ADME, Microsome
[25] = Selectivity index, ratio of IC50 for cytotoxicity against human HepG2 cells to IC50 for antiplasmodial activity against Plasmodium falciparum 3D7 infected in human erythrocytes by HRP2-ELISA; type: toxicity, cell-based; details: read-out: Ratio IC50
Plasmodium falciparum [26] = test: Selectivity index, ratio of IC50 for antiplasmodial activity against CQ-susceptible Plasmodium falciparum 3D7 to IC50 for antiplasmodial activity against CQ-resistant Plasmodium falciparum W2 by SYBR Green 1 dye based fluorescence assay; type: functional
[27] = Cytotoxicity against human THP-1 cells assessed as reduction in cell viability incubated for 72 hrs by MTT assay; type: toxicity, cell-based
Plasmodium falciparum [28] = test: Selectivity index, ratio of IC50 for antiplasmodial activity against CQ-susceptible Plasmodium falciparum 3D7 to IC50 for antiplasmodial activity CQ-resistant Plasmodium falciparum W2 by HRP2-ELISA; type: functional
[29] = Metabolic stability in mouse liver microsomes assessed as intrinsic clearance at 0.5 uM incubated for 30 mins by LC-MS/MS analysis; type: ADME, Microsome; details: read-out: CLH
Cytochrome P450 3A4 [30] = target: T1, Cytochrome P450 3A4; test: Inhibition of CYP3A4 in human liver microsomes assessed as reduction in 6-beta-hydroxy-testosterone formation using testosterone as substrate preincubated for 20 mins in absence of NADPH followed by incubation with substrate for 10 mins by LC-MS/MS analysis; type: ADME, Microsome
[31] = Metabolic stability in rat liver microsomes assessed as intrinsic clearance at 0.5 uM incubated for 30 mins by LC-MS/MS analysis; type: ADME, Microsome; details: read-out: CLH
Plasmodium berghei [32] = test: Antimalarial activity against Plasmodium berghei ANKA infected in BALB/c mouse assessed as time required for clearance of blood parasites at 9 mg/kg, ip administered daily for 5 days; type: functional; details: time 5 day
[33] = Metabolic stability in human hepatocytes assessed as intrinsic clearance incubated up to 24 hrs measured per 10^6 cells by LC-MS/MS analysis; type: ADME, cell-based, Hepatocyte
[34] = Selectivity index, ratio of IC50 for cytotoxicity against human THP-1 cells to IC50 for antiplasmodial activity against CQ-susceptible Plasmodium falciparum 3D7 by SYBR Green 1 dye based fluorescence assay; type: toxicity, cell-based; details: THP-1 cells versus CQ-susceptible Plasmodium falciparum 3D7, read-out: Ratio IC50
[35] = Selectivity index, ratio of IC50 for cytotoxicity against chinese hamster CHO cells to IC50 for antiplasmodial activity against CQ-susceptible Plasmodium falciparum 3D7 by SYBR Green 1 dye based fluorescence assay; type: toxicity, cell-based; details: CHO cells versus CQ-susceptible Plasmodium falciparum 3D7, read-out: Ratio IC50
[36] = Selectivity index, ratio of IC50 for cytotoxicity against human HepG2 cells to IC50 for antiplasmodial activity against CQ-susceptible Plasmodium falciparum 3D7 by SYBR Green 1 dye based fluorescence assay; type: toxicity, cell-based; details: HepG2 cells versus CQ-susceptible Plasmodium falciparum 3D7, read-out: Ratio IC50
[37] = Selectivity index, ratio of IC50 for cytotoxicity against human HFF cells to IC50 for antiplasmodial activity against CQ-susceptible Plasmodium falciparum 3D7 by SYBR Green 1 dye based fluorescence assay; type: toxicity, cell-based; details: HFF cells versus CQ-susceptible Plasmodium falciparum 3D7, read-out: Ratio IC50

O[C@@H](c1cc(C(F)(F)F)nc2c(C(F)(F)F)cccc12)[C@H]1CCCCN1 (relative stereo)
Activity (Plasmodium berghei [1]): Active

CCCCCCCNC[C@@H](O)c1cc(C(F)(F)F)nc2c(C(F)(F)F)cccc12
IC50 [2]: 7 µM | recovery at 2 h, 20 µM [3]: 65% | Papp A→B at 2 h, 20 µM [4]: 5.3 ×10⁻⁶ cm/s

CCCCCNC[C@@H](O)c1cc(C(F)(F)F)nc2c(C(F)(F)F)cccc12
IC50 [2]: 8.8 µM | recovery at 2 h, 20 µM [3]: 99% | Papp A→B at 2 h, 20 µM [4]: 11.4 ×10⁻⁶ cm/s

CCCCCNC[C@H](O)c1cc(C(F)(F)F)nc2c(C(F)(F)F)cccc12
IC50 [2]: 5.6 µM | recovery at 2 h, 20 µM [3]: 86% | Papp A→B at 2 h, 20 µM [4]: 3.7 ×10⁻⁶ cm/s

COC[C@H](Cc1ccccc1)NC[C@@H](O)c1cc(C(F)(F)F)nc2c(C(F)(F)F)cccc12
Activity [5]: Non-Toxic | selectivity ratio [6]: 3170 | IC50 (Plasmodium falciparum [7]): 0.0132 µM | IC50 (Plasmodium falciparum [8]): 0.011 µM | IC50 (Cytochrome P450 3A4 [9]): 2.8 µM | IC50 (Plasmodium falciparum [10]): 0.0151 µM | Drug metabolism [11]: Metabolite_Detected | selectivity ratio [12]: 2970 | IC50 (Cytochrome P450 3A4 [13]): 5.9 µM | Activity [14]: Non-Toxic | Drug metabolism [15]: Metabolite_Detected | microsomal CLint at 0.5 µM [16]: > 1000 µL/min/mg | selectivity ratio [17]: 1090 | IC50 at 24 h [18]: 47.3 µM | IC50 at 72 h [19]: 11.6 µM | IC50 [2]: 17.3 µM | Drug metabolism [20]: Metabolite_Detected | recovery at 2 h, 20 µM [3]: 81% | IC50 (Plasmodium falciparum [21]): 0.0149 µM | IC50 at 72 h [22]: 44.2 µM | IC50 (Cytochrome P450 3A4 [23]): 2.3 µM | Drug metabolism [24]: Metabolite_Detected | selectivity ratio [25]: 778 | Ratio IC50 (Plasmodium falciparum [26]): 1.1 | IC50 at 72 h [27]: 16.2 µM | Ratio IC50 (Plasmodium falciparum [28]): 1.35 | microsomal CLint at 0.5 µM [29]: > 1000 µL/min/mg | IC50 (Cytochrome P450 3A4 [30]): 2.9 µM | Papp A→B at 2 h, 20 µM [4]: 6.1 ×10⁻⁶ cm/s | microsomal CLint at 0.5 µM [31]: > 1000 µL/min/mg

CCCCCCCNC[C@H](O)c1cc(C(F)(F)F)nc2c(C(F)(F)F)cccc12
IC50 [2]: > 30 µM | recovery at 2 h, 20 µM [3]: 90% | Papp A→B at 2 h, 20 µM [4]: 0.5 ×10⁻⁶ cm/s

Cl.O[C@@H](c1cc(C(F)(F)F)nc2c(C(F)(F)F)cccc12)[C@H]1CCCCN1 (relative stereo)
Time (Plasmodium berghei [32]): <100 h

O[C@@H](c1cc(C(F)(F)F)nc2c(C(F)(F)F)cccc12)[C@H]1CCCCN1 [(S,R)-MEFLOQUINE]
IC50 (Plasmodium falciparum [7]): 0.0318 µM | IC50 (Plasmodium falciparum [8]): 0.0283 µM | CLH [33]: 0.002 mL/h | microsomal CLint at 0.5 µM [16]: < 20 µL/min/mg | recovery at 2 h, 20 µM [3]: 91% | IC50 (Plasmodium falciparum [21]): 0.0541 µM | microsomal CLint at 0.5 µM [29]: < 20 µL/min/mg | Papp A→B at 2 h, 20 µM [4]: 4.5 ×10⁻⁶ cm/s | microsomal CLint at 0.5 µM [31]: < 20 µL/min/mg

O[C@@H](CNCCN1CCN(C(c2ccccc2)c2ccccc2)CC1)c1cc(C(F)(F)F)nc2c(C(F)(F)F)cccc12
IC50 (Plasmodium falciparum [7]): 0.0765 µM | selectivity ratio [34]: 168 | IC50 (Plasmodium falciparum [10]): 0.0451 µM | selectivity ratio [35]: 226 | IC50 at 24 h [18]: 10.2 µM | IC50 at 72 h [19]: 3.3 µM | IC50 at 72 h [22]: 13.9 µM | Ratio IC50 (Plasmodium falciparum [26]): 0.6 | selectivity ratio [36]: 73 | IC50 at 72 h [27]: 7.6 µM | selectivity ratio [37]: 308

O[C@H](c1cc(C(F)(F)F)nc2c(C(F)(F)F)cccc12)[C@@H]1CCCCN1 [(R,S)-MEFLOQUINE]
CLH [33]: 0.004 mL/h | microsomal CLint at 0.5 µM [16]: < 20 µL/min/mg | recovery at 2 h, 20 µM [3]: 85% | microsomal CLint at 0.5 µM [29]: < 20 µL/min/mg | Papp A→B at 2 h, 20 µM [4]: 4.5 ×10⁻⁶ cm/s | microsomal CLint at 0.5 µM [31]: < 20 µL/min/mg

COC[C@H](Cc1ccccc1)NC[C@H](O)c1cc(C(F)(F)F)nc2c(C(F)(F)F)cccc12
selectivity ratio [6]: 1620 | IC50 (Plasmodium falciparum [7]): 0.0114 µM | IC50 (Plasmodium falciparum [8]): 0.0154 µM | IC50 (Plasmodium falciparum [10]): 0.0174 µM | selectivity ratio [12]: 1580 | selectivity ratio [17]: 728 | IC50 at 24 h [18]: 37.6 µM | IC50 at 72 h [19]: 9.6 µM | IC50 (Plasmodium falciparum [21]): 0.0232 µM | IC50 at 72 h [22]: 36.7 µM | selectivity ratio [25]: 414 | Ratio IC50 (Plasmodium falciparum [26]): 1.5 | IC50 at 72 h [27]: 16.9 µM | Ratio IC50 (Plasmodium falciparum [28]): 1.5
